Measured values reported in patent US5536848A, “Bioactive acetogenins and derivatives” (Purdue Research Foundation, priority 1994, dated 1996).
≈ marks a conversion by molar mass, not a printed value. Entries after “also recorded” stand apart in the source; their conditions may differ. Like-named read-outs stand apart in the source and are kept apart here.

Assays:
[1] = tested on: brine shrimp (Artemia salina Leach); experiment: Brine shrimp lethality test (BST); type: in vivo; details: for LC50: Artemia salina, read-out: BST LC50
Experimental: (§1) The brine shrimp (Artemia salina Leach) test (BST) was performed as modified to determine LC50 values in μg/ml. Seven-day in vitro cytotoxicity tests against human tumor cell lines were carried out at the Purdue Cancer Center, using standard protocols for A-549 (human lung carcinoma), MCF-7 (human breast carcinoma) and HT-29 (human colon carcinoma) with adriamycin as a positive control. The reported ED50 values in μg/ml (Table 5) were tabulated from the same run in order to facilitate comparison for the SAR's.
(§2) Bioassays. The brine shrimp (Artemia salina Leach) test (BST) was performed as modified. Zhao et al., Phytochemistry, 33, p. 1065 (1993). Seven-day in vitro cytotoxicity tests against human tumor cell lines were carried out at the Purdue Cancer Center, using standard protocols for A-549 (human lung carcinoma), Gu, Z. M.; Fang, X.-P.; Miesbauer, L. R., Smith, D. L.; and McLaughlin, J. L., 30, 31, and 32-Hydroxybullatacinones: Bioactive Terminally-Hydroxylated Annonaceous Acetogenins from Annona bullata., J. Nat. Prod., 1993, 56, 870-876; MCF-7 (human breast carcinoma) McLaughlin, J. L., Chang, C.-J., and Smith, D. L., Simple Bench-Top Bioassays (Brine Shrimp and Potato Discs) for the Discoveries of Plant Antitumor Compounds: A Review of Recent Progress. In Kinghorn, A. D., Balandrin, J. (Eds): "Human Medicinal Agents from Plants", ACS Symposium Series, Washington, D.C., American Chemical Society, 1993, pp. 112-137; and HT-29 (human colon carcinoma), Mclaughlin, J.L., Chang, C.-J., Smith, D.L., "'Bench-Top' Bioassays for the Discovery of Bioactive Natural Products: An Update", in Rahman, Atta-ur- (Ed): "Studies in Natural Product Chemistry", Vol. 9, Amsterdam, Elsevier, 1991, pp. 383-409, with adriamycin as a positive control. The reported values (Table IV) were tabulated from the same run in order to facilitate comparison for the SAR's.
(§3) Bioassay. The extracts, fractions, and isolates were routinely evaluated for lethality to brine shrimp larvae (BST). Cytotoxicities against human solid tumor cells were measured at the Purdue Cell Culture Laboratory, Purdue Cancer Center, for the A-549 lung carcinoma, MCF-7 breast carcinoma, and HT-29 colon adenocarcinoma.
(§4) The brine shrimp lethality test (BST), on newly hatched naupleii, was performed in our laboratory as previously described. McLaughlin, Methods in Plant Biochemistry, Vol. 6, Hostettmann, Academic Press, London, pp. 1-33 (1991). Seven day cytotoxicities against human solid tumor cells were measured at the Cell Culture Laboratory, Purdue Cancer Center, for the A-549 lung carcinoma, MCF-7 breast carcinoma, and HT-29 colon adenocarcinoma. The respiratory functions of rat liver mitochondria (RMB) were measured polarographically by determination of their rates of oxygen consumption after the addition of acetogenins or their derivatives.

[2] = tested on: A-549 (human lung carcinoma); experiment: Seven-day in vitro cytotoxicity, A-549; type: cell-based; details: A549, 168 h
Experimental: as §1, §2, §3, §4

[3] = tested on: MCF-7 (human breast carcinoma); experiment: Seven-day in vitro cytotoxicity, MCF-7; type: cell-based; details: MCF7, 168 h
Experimental: as §1, §2, §3, §4

rat liver mitochondria = experiment: Rat mitochondrial bioassay (RMB), inhibition of oxygen uptake; type: biochemical; details: for RMB IC50: Table 17, oxygen consumption of rat liver mitochondria, parent and acetal derivative in the same run
Experimental: as §4
The oxidative phosphorylation pathway (or electron transport chain) is responsible for oxidizing NADH to NAD^+ and producing ATP from ADP and phosphate within the mitochondria. There are five enzyme complexes in this pathway: NADH-ubiquinone reductase (complex I), succinate-ubiquinone reductase (complex II), ubiquinone-cytochrome c reductase (complex III), cytochrome c oxidase (complex IV) and the F0 F1 -ATPase complex (complex V). The end point of the oxidative phosphorylation pathway is the reduction of oxygen (O2) to water in the mitochondria (thus, it is also called respiration), coupled with the synthesis of ATP by complex V. State 4 respiration is the oxidation of substrates in the absence of a phosphate acceptor (e.g., ADP). State 3 respiration occurs when a phosphate acceptor is present and oxygen utilization increases. The ratio of State 3 respiration to State 4 respiration is the respiratory control ratio (RCR).
The process of respiration can be measured by using an oxygen electrode to detect the amount of oxygen present in the assay cell. If respiration is occurring normally, the concentration of oxygen should slowly decrease as it is reduced to water. However, if there is some type of inhibition of oxidative phosphorylation occurring, the oxygen level will no longer decrease at the same rate. This rate of oxygen usage can be visualized by a chart recorder connected to the oxygen electrode. At normal respiration,a decreasing baseline slope will be established. During inhibition, however, the baseline slope should decrease (i.e., the slope will move closer to zero), since the oxygen present is no longer being reduced. In other words, the oxygen concentration in the assay cell is no longer decreasing at the same rate as in normal respiration. Furthermore, inhibition sites at specific complexes can be determined by competitive inhibition studies. This is accomplished by addition of a known inhibitor of, e.g., complex I, followed by the new respiration-inhibiting compound. […] This can be verified by trying inhibitors at other sites and by reversing the order, i.e., adding the new compound and then the known inhibitor.
The method for isolating rat liver mitochondria essentially followed the published methodology. Ahammadsahib et al., Life Sciences, 53, pgs. 1113-1120 (1993). The isolation buffer used for the isolation of mitochondria from rat liver consisted of 4 mM Tris-HC1, 0.5 mM EDTA, and 250 mM sucrose at a pH of 7.4. The isolation buffer was kept at refrigeration temperature at all times by storing on ice during the whole procedure. The rats were supplied by Sprague-Dawley, were male, and weighed approximately 300-320 grams. They were sacrificed with carbon dioxide, and the livers were removed and immediately placed in the isolation buffer on ice. The livers were then rinsed with several washings of cold buffer, cut into pieces, and homogenized. The homogenates were then centrifuged (Sorvall Superspeed RC2-B, 4° C) for 10 minutes at approximately 2000 rpms; the supernatant was next centrifuged for 20 minutes at approximately 9000 rpms. The pellet was reserved and resuspended in 2 ml of assay buffer with a glass pipet. The assay buffer consisted of 100 mM KC1, 5 mM KH2 PO4, 1 mM EDTA, 5 mM glutamate, 1 mM malate, and 20 mM Tris-HCl at a pH of 7.4 and was stored at room temperature. […]

[4] = Table 17, seven day cytotoxicity, same run, read-out: MCF-7 ED50
[5] = read-out: MCF-7 LC50, Table 12, same run
[6] = read-out: MCF-7 ED50, Table 17, seven day cytotoxicity, same run

Structure (SMILES) | LC50 ([1]; Table 17, same run) [ng/mL] | IC50 [3, 4] [ng/mL] | RMB IC50 (rat liver mitochondria) [n moles/Lt/mg protein] | also measured
CCCCCCCCCCCCCC[C@H]1OCO[C@@H]1CC[C@H](O)[C@@H]1CC[C@@H](CCCCC[C@@H](O)CC2=C[C@H](C)OC2=O)O1 [Compound 12, 17,18-formaldehyde acetal derivative] | 7.5 (≈ 12.3 nM) | 268 (≈ 440 nM) | 290.3 | IC50 ([2]; Table 17, seven day cytotoxicity, same run, read-out: A-549 ED50): 69.5 ng/mL (≈ 114 nM)
CCCCCCCCCC[C@H](O)[C@H]1CC[C@H]([C@H]2CC[C@@H]([C@@H]3CC[C@@H](CCCCCCC[C@@H](O)CC4=C[C@H](C)OC4=O)O3)OCO2)O1 [Compound 19, 16,19-Formaldehyde acetal derivative of bullatalicin] | 49 (≈ 75.3 nM) | 18.5 (≈ 28.4 nM) | 29.8 | 
CCCCCCCCCC[C@@H](O)[C@H]1CC[C@H]([C@H]2CC[C@@H]([C@@H]3CC[C@@H](CCCCCCC[C@@H](O)CC4=C[C@H](C)OC4=O)O3)OCO2)O1 [Compound 21, 16,19-Formaldehyde acetal derivative of bullatanocin] | 6.5 (≈ 9.99 nM) | 222 (≈ 341 nM) | 11.3 | 
CCCCCCCCCCCC[C@@H](O)[C@H]1CC[C@H]([C@H](O)CC[C@H](O)[C@@H]2CC[C@@H](CCCCC[C@@H](O)CC3=C[C@H](C)OC3=O)O2)O1 [Compound 29, Gigantecin] |  |  |  | LC50 ([1]; Table 12): 34.4 ng/mL (≈ 53.8 nM); IC50 ([2]; read-out: A-549 LC50): < 10 ng/mL; IC50 [3, 5]: 0.1 ng/mL (≈ 0.157 nM)
CCCCCCCCCCCCC(O)C1CCC(C(O)CCC(O)C2CCC(CCCCCC(O)CC3=CC(C)OC3=O)O2)O1 (stereo not drawn) [Compound 22, C-18/21-cis-gigantecin] |  |  |  | LC50 ([1]; Table 12): 249 ng/mL (≈ 390 nM)
CCCCCC(O)CCCCC(O)C1CCC(C2CCC(C(O)CCCCCCCCCCCCC3=CC(C)OC3=O)O2)O1 (stereo not shown) [Compound 5, Asiminecin] |  |  |  | LC50 ([1]; Table 5, brine shrimp larvae): 4.9 ng/mL (≈ 7.87 nM); IC50 ([2]; read-out: A-549 LC50): 0.000329 ng/mL (≈ 0.000528 nM)
CCCCCCCCCCCC/C=C\CCC(O)C(O)CCC(O)C1CCC(CCCCCC(O)CC2=CC(C)OC2=O)O1 (stereo not shown) [Compound 28, Gigantetronenin, reference compound] |  |  |  | LC50 ([1]; Table 12): 10400 ng/mL (≈ 16700 nM); IC50 [3, 5]: 1.49e-05 ng/mL (≈ 2.39e-05 nM)
CCCCCCCCCC[C@@H](O)[C@H]1CC[C@H]([C@H](O)CC[C@H](O)[C@@H]2CC[C@@H](CCCCCCC[C@@H](O)CC3=C[C@H](C)OC3=O)O2)O1 [Compound 20, Bullatanocin, reference compound] | 430 (≈ 673 nM) | 24.2 (≈ 37.9 nM) | 50.7 | 
CCCCCCCCCCCCCC[C@@H](O)[C@H]1CC[C@@H]([C@@H]2CC[C@@H](CCCCC[C@@H](O)CC3=C[C@H](C)OC3=O)O2)OCO1 [Compound 11, 14,17-formaldehyde acetal derivative] |  |  |  | IC50 ([2]; read-out: A-549 ED50): 0.798 ng/mL (≈ 1.31 nM); IC50 [3, 6]: 461 ng/mL (≈ 757 nM)
CCCCC(O)CCCCCC(O)C1CCC(C2CCC(C(O)CCCCCCCCCCCCC3=CC(C)OC3=O)O2)O1 (stereo not shown) [Compound 2] |  |  |  | LC50 ([1]; Table 5, brine shrimp larvae): 6 ng/mL (≈ 9.63 nM); mitochondrial inhibition (rat liver mitochondria; rat liver mitochondria, result in words, listed as bullanin (2)): high activity; also recorded: slightly higher potencies than bullatacin
CCCCCCC(O)CCCC(O)C1CCC(C2CCC(C(O)CCCCCCCCCCCCC3=CC(C)OC3=O)O2)O1 (stereo not shown) [Compound 4, Asiminacin] |  |  |  | LC50 ([1]; Table 5, brine shrimp larvae): 5.7 ng/mL (≈ 9.15 nM)
CCCCCC[C@H](O)CCC[C@H](O)[C@H]1CC[C@H]([C@H]2CC[C@H]([C@H](O)CCCCCCCCCCCCC3=C[C@H](C)OC3=O)O2)O1 [Compound 16, Squamocin, reference compound] | 20 (≈ 32.1 nM) |  | 21.5 | IC50 [3, 6]: 30.3 ng/mL (≈ 48.6 nM)
C=C(C)[C@H]1Cc2c(ccc3c2O[C@@H]2COc4cc(OC)c(OC)cc4[C@@H]2C3=O)O1 [Rotenone, rotenone, reference compound] |  |  | 34.8 | LC50 [1]: 12.3 ng/mL (≈ 31.2 nM)
CCCCCCCCCCC(O)C1CCC(C2CCC(C(O)CCCCC(O)CCCCCCCC3=CC(C)OC3=O)O2)O1 (stereo not shown) [Compound 3, Asimin] |  |  |  | BST LC50 ([1]; Table 5, brine shrimp larvae): 4.6 ng/mL
CCCCCC[C@H]1CCC[C@@H](C2CCC(C3CCC(C(O)CCCCCCCCCCCCC4=CC(C)OC4=O)O3)O2)OCO1 (stereo partly shown) [Compound 17, 24,28-formaldehyde acetal derivative of squamocin] | 4.4 (≈ 6.93 nM) | 695 (≈ 1090 nM) | 421.1 | 
CCCCCC[C@H](O)CCC[C@H](O)[C@H]1CC[C@H]([C@H](O)CC[C@H](O)[C@@H]2CC[C@@H](CCCCCCCCCC3=C[C@H](C)OC3=O)O2)O1 [Compound 13, Squamostatin A, reference compound] | 2800 (≈ 4380 nM) |  |  | IC50 ([2]; read-out: A-549 ED50): 0.268 ng/mL (≈ 0.419 nM); IC50 [3, 6]: 0.072 ng/mL (≈ 0.113 nM)
CCCCCC[C@H](O)CCC[C@H](O)[C@H]1CC[C@H]([C@H]2CC[C@@H]([C@@H]3CC[C@@H](CCCCCCCCCC4=C[C@H](C)OC4=O)O3)OCO2)O1 [Compound 15, 16,19-mono-formaldehyde acetal derivative] | 7 (≈ 10.8 nM) | 1090 (≈ 1670 nM) |  | 
CCCCCCCCCC[C@H](O)[C@H]1CC[C@H]([C@H]2CC[C@@H]([C@@H]3CC[C@@H](CCCCCCC[C@@H]4CC(CC(C)=O)C(=O)O4)O3)OCO2)O1 (stereo partly drawn) [Compound 27, 16,19-Formaldehyde acetal derivatives of (2,4-cis and trans)-bullatalicinones] | 38 (≈ 58.4 nM) | 63.9 (≈ 98.2 nM) | 20.5 | 
